From patent publication US12703704B2, “Process for preparing a composition comprising enantiomerically enriched pyrrolo[2,3-d]pyrimidines” (Sun Pharmaceutical Industries, Inc., priority 2020, dated 2026)

Assays:
JAK1 = JAK1 (Homo sapiens, UniProt P23458); test: JAK1 inhibition (IC50); assay type: biochemical; conditions: Compound A or a pharmaceutically acceptable salt thereof
JAK2 = JAK2 (Homo sapiens, UniProt O60674); test: JAK2 inhibition (IC50); assay type: biochemical; conditions: Compound A or a pharmaceutically acceptable salt thereof
JAK2, sequence (O60674 whole entry): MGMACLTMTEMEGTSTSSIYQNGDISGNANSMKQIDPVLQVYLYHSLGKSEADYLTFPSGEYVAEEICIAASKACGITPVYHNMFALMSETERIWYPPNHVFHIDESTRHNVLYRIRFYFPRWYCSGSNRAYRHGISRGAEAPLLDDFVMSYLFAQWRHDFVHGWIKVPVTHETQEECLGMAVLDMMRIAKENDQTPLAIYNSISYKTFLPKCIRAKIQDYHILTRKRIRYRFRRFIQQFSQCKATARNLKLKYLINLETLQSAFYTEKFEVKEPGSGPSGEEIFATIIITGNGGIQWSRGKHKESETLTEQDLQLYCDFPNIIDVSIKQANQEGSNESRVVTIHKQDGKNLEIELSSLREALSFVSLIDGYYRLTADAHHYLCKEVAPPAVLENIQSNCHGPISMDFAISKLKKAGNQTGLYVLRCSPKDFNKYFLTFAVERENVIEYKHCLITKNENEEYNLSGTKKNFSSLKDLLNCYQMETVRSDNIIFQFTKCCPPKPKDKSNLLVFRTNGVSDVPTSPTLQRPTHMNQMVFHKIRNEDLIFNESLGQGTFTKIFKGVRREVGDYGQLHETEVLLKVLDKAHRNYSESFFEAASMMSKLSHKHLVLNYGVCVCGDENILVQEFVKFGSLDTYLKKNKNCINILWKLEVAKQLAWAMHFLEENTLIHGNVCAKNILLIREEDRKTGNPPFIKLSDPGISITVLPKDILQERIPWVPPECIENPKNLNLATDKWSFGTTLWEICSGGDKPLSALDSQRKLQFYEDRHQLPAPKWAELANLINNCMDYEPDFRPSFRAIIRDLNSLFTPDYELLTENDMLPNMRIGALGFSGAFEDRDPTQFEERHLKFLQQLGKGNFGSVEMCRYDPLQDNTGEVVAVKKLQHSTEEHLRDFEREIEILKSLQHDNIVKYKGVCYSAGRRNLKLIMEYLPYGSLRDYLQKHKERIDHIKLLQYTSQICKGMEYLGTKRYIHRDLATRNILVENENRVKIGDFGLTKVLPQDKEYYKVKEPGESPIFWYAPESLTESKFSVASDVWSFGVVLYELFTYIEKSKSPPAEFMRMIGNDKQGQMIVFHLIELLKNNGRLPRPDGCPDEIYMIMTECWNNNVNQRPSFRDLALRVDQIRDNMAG

JAK1, sequence (P23458 whole entry): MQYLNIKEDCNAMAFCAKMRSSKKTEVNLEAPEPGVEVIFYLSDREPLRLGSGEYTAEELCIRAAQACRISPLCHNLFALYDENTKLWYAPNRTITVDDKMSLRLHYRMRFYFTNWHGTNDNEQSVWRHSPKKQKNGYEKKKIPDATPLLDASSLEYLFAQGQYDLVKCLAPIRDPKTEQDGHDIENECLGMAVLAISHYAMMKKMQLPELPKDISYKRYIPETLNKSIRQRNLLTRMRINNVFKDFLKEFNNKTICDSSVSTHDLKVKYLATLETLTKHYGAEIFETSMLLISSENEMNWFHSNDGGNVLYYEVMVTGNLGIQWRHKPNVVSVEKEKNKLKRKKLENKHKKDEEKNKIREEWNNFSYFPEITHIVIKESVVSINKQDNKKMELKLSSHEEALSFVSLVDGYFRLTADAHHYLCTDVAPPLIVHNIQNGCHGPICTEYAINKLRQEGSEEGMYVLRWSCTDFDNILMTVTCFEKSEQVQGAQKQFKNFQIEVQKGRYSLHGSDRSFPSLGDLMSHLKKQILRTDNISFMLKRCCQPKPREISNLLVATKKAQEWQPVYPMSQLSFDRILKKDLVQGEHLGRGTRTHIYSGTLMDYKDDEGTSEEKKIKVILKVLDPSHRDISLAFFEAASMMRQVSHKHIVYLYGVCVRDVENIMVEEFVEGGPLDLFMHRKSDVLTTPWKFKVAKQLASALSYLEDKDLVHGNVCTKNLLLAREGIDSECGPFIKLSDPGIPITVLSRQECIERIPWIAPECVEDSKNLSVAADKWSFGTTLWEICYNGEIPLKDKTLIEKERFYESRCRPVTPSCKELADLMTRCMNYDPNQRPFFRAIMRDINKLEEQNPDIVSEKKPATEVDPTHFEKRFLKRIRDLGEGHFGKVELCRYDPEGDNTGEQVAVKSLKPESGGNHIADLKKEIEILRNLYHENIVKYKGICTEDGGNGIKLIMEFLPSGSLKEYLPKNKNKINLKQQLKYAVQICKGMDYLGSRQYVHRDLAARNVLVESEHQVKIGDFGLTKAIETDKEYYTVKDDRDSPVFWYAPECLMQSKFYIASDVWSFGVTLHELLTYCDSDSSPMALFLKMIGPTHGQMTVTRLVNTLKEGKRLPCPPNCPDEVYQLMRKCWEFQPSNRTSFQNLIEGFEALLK

`[2H]C1([2H])C([C@@H](CC(N)=O)n2cc(-c3ncnc4[nH]ccc34)cn2)C([2H])([2H])C([2H])([2H])C1([2H])[2H]` [Compound A, (R)-3-(4-(7H-pyrrolo[2,3-d]pyrimidin-4-yl)-1H-pyrazol-1-yl)-3-(cyclopentyl-2,2,3,3,4,4,5,5-d8) propanamide] was tested. Which IC50 (JAK1) did it give?
The IC50 was < 100 nM.

What about the IC50 (JAK2) of the same compound?
The IC50 was < 100 nM.
